Source: patent US20070015733A1, “Aryl Phosphate Derivatives of d4T having Activity Against Resistant HIV Strains” (Parker Hughes Institute, priority 1998, published 2007)
Where two headings read alike, the source gives them in different places.

Columns and labels:
HIV-1 (strain: HTLVIIIB) = assay: microbe, parasite or virus in culture; assay type: cell-based; settings: Human immunodeficiency virus 1, read-out: PBMNC IC50 [RT], PBMNC; unit not given in Table 5 (0.04 = 40 nM)
Procedure: (§1) Percent inhibition of viral replication was calculated by comparing the p24 and RT activity values from the test substance-treated infected cells with those from untreated infected cells. In parallel, the cytotoxicity of the compounds was examined using a microculture tetrazolium assay (MTA) of cell proliferation, as described.in the Zarling, Enrice, and Uckun articles Supra).
(§2) Cellular Assays of Anti-HIV Activity and Cytotoxicity. […] Percent viral inhibition was calculated by comparing the RT activity values from the test substance-treated infected cells with RT values from untreated infected cells (i.e., virus controls).

[1] = tested on: HIV-1 (HTLVIIIB) in TK-deficient CEM T-cells; assay: Inhibition of HIV-1 replication in TK-deficient CEM T-cells (p24 / RT activity); assay type: cell-based
Procedure: as §1, §2

[2] = Microculture tetrazolium assay (MTA) cytotoxicity in PBMNC; settings: human
Procedure: as §1, §2
(§3) Antiviral susceptibility assays. Phenotypic drug susceptibility studies of HIV-1 isolates and strains were performed by measuring the production of the p24 gag protein in peripheral blood mononuclear cells (PBMC) from seronegative healthy volunteers in the presence of increasing concentrations of the anti-HIV agent using the quantitative Coulter HIV-1 p24 antigen ezyme immunoassay (EIA) and HIV-1 p24 Antigen Kinetic Standard (Beckman Coulter), as previously described (Uckun, 1998, Antimicrobial Agents and Chemotherapy 37(4): 835-38). Informed consent was obtained from the blood donors according to DHHS guidelines using consent forms approved by the Institutional Review Board. In brief, PBMC were cultured for 72 h in RPMI 1640 medium (Gibco) supplemented with 20% (vol/vol) heat-inactivated fetal bovine serum, 5% human interleukin-2 (Zeptometrix), 2 mM L-glutamine, 25 mM HEPES, 2 g/L NaHCO3, 100 U/ml penicillin/streptomycin (Gibco), 50 μg/ml gentamicin (Gibco), and 5 μg/ml phytohemagglutinin-P (PHA-P) (Sigma) for 24-72 hours prior to exposure to HIV at a multiplicity of infection of 0.001-0.1 during a 1-h adsorbtion period at 37±1° C. in a humidified 5-7% CO2 atmosphere. Subsequently, cells were cultured in 96-well microtiter plates (100 μl/well; 2×10^6 cells/ml, triplicate wells) in the presence of the anti-HIV agents at 6-7 different concentrations ranging from 0.0001 μM to 100 μM, and 25 μL aliquots of culture supernatants were removed from the wells on day 6 after infection for p24 EIA, as previously described (Uckun, 1998, Antimicrobial Agents and Chemotherapy, 37(4):835-38). Controls included uninfected and untreated cells (background control) and infected but untreated (virus control) cells. The p24 EIA utilizes a murine monoclonal antibody to HIV core protein used to coat microwell strips to which the antigen present in the test culture supernatant samples binds. Percent inhibition of viral replication was calculated by comparing the p24 values from the test substance-treated infected cells with p24 values from untreated infected cells (i.e., virus controls). The IC50 values were determined using the Statview statistics program (SAS Institute, Inc.). In parallel, the effects of various treatments on cell viability were also examined as previously described (Uckun, 1998, Antimicrobial Agents and Chemotherapy, 42:383-388). In brief, noninfected PBMC were treated with each compound for 5 days under identical experimental conditions. A microculture tetrazolium assay (MTA) was performed to quantitate cellular proliferation (Uckun, 1998, Antimicrobial Agents and Chemotherapy, 42:383-388).
In parallel, the cytotoxicity of the compounds was examined using a microculture tetrazolium assay (MTA) of cell proliferation, as described (in the Zarling, Enrice, and Uckun articles Supra).

[3] = Microculture tetrazolium assay (MTA) cytotoxicity in CEM cells; settings: human
Procedure: as §1, §2

HIV-2 (Strain: CBL-20) = assay: Inhibition of HIV-2 replication in PBMNC (RT activity); assay type: cell-based
Procedure: (P-AZT) and with AZT. The incubation and analysis methods used were as described above for Example 3.
as §2

[4] = tested on: AZT- and NNI-resistant HIV-1 (strain: RTMDR-1); assay: Inhibition of RTMDR-1 (HIV-MDR) replication in PBMNC (RT activity); assay type: cell-based
Procedure: as §2

HIV-1 HTLVIIIB = assay: microbe, parasite or virus in culture
Procedure: In vitro assays of anti-HIV-1 activity. Normal human peripheral blood mononuclear cells (PBMNC) from HIV-negative donors were cultured 72 hours in RPMI 1640 supplemented with 20% (v/v) heat-inactivated fetal bovine serum (FBS), 3% interleukin-2, 2 mM L-glutamine, 25 mM HEPES, 2 g/L NaHCO3, […], and […] prior to exposure to HIV-1 at a multiplicity of infection (MOI) of 0.1 during a 1 hour adsorption period at 37° C. in a humidified 5% CO2 atmosphere. Subsequently, cells were cultured in 96-well microtiter plates ([…]; 2×10^6 cells/mL) in the presence of various concentrations of d4T phosphoramidates and aliquots of culture supernatants were removed from the wells on the 7th day after infection for p24 antigen assays, as previously described (Uckun et al., 1998, Antimicrobial Agents and Chem., 42(2):383-388). The applied p24 enzyme immunoassay (EIA) was the unmodified kinetic assay commercially available from Coulter Corporation/Immunotech, Inc. (Westbrooke, Me.), which utilizes a murine mAb to HIV core protein coated onto microwell strips to which the antigen present in the test culture supernatant samples binds. Percent viral inhibition was calculated by comparing the p24 values from untreated infected cells (i.e., virus controls).
The anti-HIV activity of the compounds was examined by evaluating their ability to inhibit HIV replication in peripheral blood mononuclear cells using previously described procedures (Uckun et al., 1998, Antimicrobial Agents and Chem., 42(2):383-388). Percent inhibition of viral replication was calculated by comparing the p24 antigen levels from the test substance-treated infected cells with those from vehicle-treated infected cells.
as §3, with “Inc.).” for “Inc.). In parallel, the effects of various treatments on cell viability were also examined as previously described (Uckun, 1998, Antimicrobial Agents and Chemotherapy, 42:383-388). In brief, noninfected PBMC were treated with each compound for 5 days under identical experimental conditions. A microculture tetrazolium assay (MTA) was performed to quantitate cellular proliferation (Uckun, 1998, Antimicrobial Agents and Chemotherapy, 42:383-388).”

[5] = Pharmacokinetics after intravenous or oral administration; assay type: in vivo, mice; settings: intravenous administration
[6] = Stability in plasma, whole blood, gastric fluid and intestinal fluid; assay type: in vitro ADME; settings: plasma or whole blood
Procedure: Ala-d4T-MP is stable both in plasma and in whole blood. […] This hypothesis is consistent with the formation of a significant amount of d4T after incubation of d4T-5′-[p-bromophenyl methoxyalaninyl phosphate] with a liver homogenate.
Orally administered d4T-5′-[p-bromophenyl methoxyalaninyl phosphate] also yielded Ala-d4T-MP and d4T as the major metabolites. […] This metabolite can be absorbed in the intestine and then further metabolized to yield d4T in the blood. The tmax and t1/2 values for d4T in mice were longer when derived from orally administered d4T-5′-[p-bromophenyl methoxyalaninyl phosphate] (42.4 minutes and 99.0 minutes, respectively) than from orally administered d4T (5 minutes and 18 minutes, respectively). The tmax value is higher but the t1/2 value is lower for orally administered d4T-5′-[p-bromophenyl methoxyalaninyl phosphate] compared to intravenously administered d4T-5′-[p-bromophenyl methoxyalaninyl phosphate]. […] However, the bioavailability of d4T metabolized from d4T-5′-[p-bromophenyl methoxyalaninyl phosphate] (48%) was lower than that of orally administered d4T (98%).

[7] = Human immunodeficiency virus 1, PBMC

## COC(=O)C(C)NP(=O)(OC[C@H]1O[C@@H](n2cc(C)c(=O)[nH]c2=O)CC1N=[N+]=[N-])Oc1ccc(Br)cc1 (stereo partly drawn) [Compound 5c, AZT-5′-(para-bromophenylmethoxyalaninyl phosphate)]
HIV-1 (strain: HTLVIIIB)
  IC50: 4 nM
[1]; Human immunodeficiency virus 1, CCRF-CEM, TK-deficient CEM cells, read-out: IC50 value for inhibition of RT activity
  IC50: 40 nM
[1]; Human immunodeficiency virus 1, T-cell, TK-deficient CEM T-cells, Table 5, read-out: CEM IC50 [RT]
  IC50: 40 nM
[1]; TK-deficient CEM cells
  times more effective than AZT in inhibiting HIV replication: 5 times
[2]
  IC50 at 5 days: > 10000 nM
[3]
  IC50: > 10000 nM
HIV-2 (Strain: CBL-20); Human immunodeficiency virus 2, read-out: HIV-2 IC50 [RT]
  IC50: 3900 nM
HIV-2 (Strain: CBL-20); PBMNC
  antiviral activity against HIV-2 (in words): not effective
[4]; Human immunodeficiency virus 1, read-out: HIV-MDR IC50 [RT]
  IC50: 1500 nM
[4]; Human immunodeficiency virus 1, read-out: IC50 against HIV-MDR
  IC50: 1500 nM
[4]; Human immunodeficiency virus 1, read-out: RTMDR-1 IC50 [RT]
  IC50: 1500 nM
[4]; PBMNC
  antiviral activity against RTMDR-1 (in words): not effective

## Cc1c(O)cccc1C(=O)N[C@@H](CSc1ccccc1)[C@H](O)CN1C[C@H]2CCCC[C@H]2C[C@H]1C(=O)NC(C)(C)C [nelfinavir]
[2]
  CC50 at 5 days: 3500 ± 1400 nM
HIV-1 HTLVIIIB
  SI(CC50/IC50): 583
HIV-1 HTLVIIIB; [7]
  IC50: 6 ± 3 nM
  IC90: 84 ± 38 nM

## Cc1cn([C@H]2C=C[C@@H](COP(=O)(O)NC(C)C(=O)O)O2)c(=O)[nH]c1=O (stereo partly drawn) [Ala-d4T-MP, alaninyl-d4T-monophosphate]
[5]
  elimination half-life (t1/2) of the administered substance: 28.5 min
[6]
  stability in plasma and whole blood: stable
